From ChEMBL document CHEMBL1201862, “PubChem BioAssay data set” (2004)
Active and inactive are the calls of the source.

What was measured:
[1] = cytotoxicity in HEK-293T cells, dose response, cytotoxicity control for BCR NF-kB inhibitor project, luminescence, B-cell screen hits (AID 489021); format: functional, cell-based;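 note: HEK-293T cells carrying an NF-kB luciferase reporter; cells exposed to compound for about 14 hours before viability readout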
INS1 = test: beta cell apoptosis inhibitors, cytokine rescue, dose response, luminescence, retest (AID 449756); format: functional, cell-based; conditions: Rattus norvegicus;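 note: cell death triggered by IL-1 beta plus TNF-alpha plus IFN-gamma mixture; protective hits raise ATP signal compared with cytokine alone wells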
Cytochrome P450 2D6 = Cytochrome P450 2D6 (Homo sapiens, UniProt P10635);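 note: CYP2D6 member of a cytochrome P450 panel assay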
[2] = molecular target: T1, High affinity choline transporter 1 (Homo sapiens, UniProt Q9GZV3); test: CHT inhibitors, dose response, cell-based, 5-point CRC, membrane potential dye (AID 504840); format: functional
T1 sequence (Q9GZV3 whole entry): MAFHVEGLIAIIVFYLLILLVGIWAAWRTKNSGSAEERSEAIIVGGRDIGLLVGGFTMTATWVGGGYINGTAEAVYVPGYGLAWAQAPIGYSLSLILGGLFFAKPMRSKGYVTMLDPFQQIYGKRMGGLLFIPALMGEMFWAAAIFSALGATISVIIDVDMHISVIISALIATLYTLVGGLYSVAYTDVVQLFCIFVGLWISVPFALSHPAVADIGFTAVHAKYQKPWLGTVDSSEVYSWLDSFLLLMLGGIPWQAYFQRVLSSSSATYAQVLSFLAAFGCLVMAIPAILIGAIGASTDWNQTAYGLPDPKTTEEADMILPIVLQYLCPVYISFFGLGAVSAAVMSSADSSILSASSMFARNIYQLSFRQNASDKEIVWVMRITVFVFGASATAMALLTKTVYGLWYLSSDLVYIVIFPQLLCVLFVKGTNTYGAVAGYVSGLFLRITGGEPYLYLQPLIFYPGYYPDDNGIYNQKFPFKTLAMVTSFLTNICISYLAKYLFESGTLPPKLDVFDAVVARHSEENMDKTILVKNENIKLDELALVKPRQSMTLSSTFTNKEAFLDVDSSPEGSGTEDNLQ

[3] = molecular target: G-protein coupled receptor 55 (Homo sapiens, UniProt Q9Y2T6); test: GPR55 agonists via beta-arrestin recruitment, primary screen, imaging, U2OS cells, beta-arrestin-GFP redistribution (AID 1961); format: functional
Cytochrome P450 2C19 = Cytochrome P450 2C19 (Homo sapiens, UniProt P33261); test: Cytochrome panel assay with activity outcomes. Panel member name: p450-cyp2c19 Compounds with AC50 equal or less than 10 uM are considered active; format: functional; conditions: read-out: AC50
Cytochrome P450 2C9 = Cytochrome P450 2C9 (Homo sapiens, UniProt P11712)
Fatty acid synthase [4] = molecular target: T2, Fatty acid synthase (Homo sapiens, UniProt P49327); test: FAS thioesterase domain inhibitors, dose response, biochemical, kinetic fluorescence intensity (AID 624326); format: functional;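 note: rate of fluorescence rise from hydrolysis of a fluorogenic O-methyl fluorescein ester substrate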
Fatty acid synthase [5] = molecular target: T2, Fatty acid synthase; test: FAS thioesterase domain inhibitors, dose response, biochemical, endpoint fluorescence intensity, uHTS hits (AID 624327); format: functional;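 note: fluorescence from hydrolysis of an O-methyl fluorescein acyl ester substrate by the enzyme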
[6] = cytotoxicity in HEK-293T cells, dose response, cytotoxicity control for TCR NF-kB inhibitor project, luminescence, T-cell screen hits (AID 489026); format: functional, cell-based;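 note: cells exposed to compound about 14 hours before the viability readout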
Aminopeptidase N = molecular target: T3, Aminopeptidase N (Plasmodium falciparum FcB1/Columbia, UniProt O96935); test: P. falciparum M1AAP inhibitors, biochemical, fluorogenic H-Leu-NHMec substrate, 1536-well (AID 1445); set-up: species or system Plasmodium falciparum 3D7, 3D7
T3 sequence (O96935 whole entry): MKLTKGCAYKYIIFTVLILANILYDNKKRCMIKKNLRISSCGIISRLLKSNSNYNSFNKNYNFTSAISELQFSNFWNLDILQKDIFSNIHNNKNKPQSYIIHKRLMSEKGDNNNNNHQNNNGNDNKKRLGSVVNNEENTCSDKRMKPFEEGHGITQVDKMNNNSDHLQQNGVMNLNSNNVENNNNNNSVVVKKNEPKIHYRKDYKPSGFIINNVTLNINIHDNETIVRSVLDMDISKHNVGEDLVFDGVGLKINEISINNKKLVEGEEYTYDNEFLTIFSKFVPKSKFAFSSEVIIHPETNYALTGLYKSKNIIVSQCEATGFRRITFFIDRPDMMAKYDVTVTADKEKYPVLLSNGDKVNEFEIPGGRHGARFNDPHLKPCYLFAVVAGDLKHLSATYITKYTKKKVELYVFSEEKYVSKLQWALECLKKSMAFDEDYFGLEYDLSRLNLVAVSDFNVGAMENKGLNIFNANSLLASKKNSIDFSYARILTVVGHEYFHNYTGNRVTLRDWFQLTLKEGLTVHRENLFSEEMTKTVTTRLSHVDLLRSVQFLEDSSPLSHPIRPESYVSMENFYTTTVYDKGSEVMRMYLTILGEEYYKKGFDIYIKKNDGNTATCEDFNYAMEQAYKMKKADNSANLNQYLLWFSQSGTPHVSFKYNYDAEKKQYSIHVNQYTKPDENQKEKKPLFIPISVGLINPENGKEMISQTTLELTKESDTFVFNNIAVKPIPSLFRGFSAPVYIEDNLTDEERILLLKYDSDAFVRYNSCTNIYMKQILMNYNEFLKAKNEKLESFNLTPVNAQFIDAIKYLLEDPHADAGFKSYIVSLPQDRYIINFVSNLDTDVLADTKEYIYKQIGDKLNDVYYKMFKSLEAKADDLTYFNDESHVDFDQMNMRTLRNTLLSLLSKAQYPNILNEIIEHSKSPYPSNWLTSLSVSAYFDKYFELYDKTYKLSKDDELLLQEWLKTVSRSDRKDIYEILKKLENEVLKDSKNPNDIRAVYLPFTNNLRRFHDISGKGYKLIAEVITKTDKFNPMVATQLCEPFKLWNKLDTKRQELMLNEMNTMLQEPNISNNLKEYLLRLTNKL

[7] = cytotoxicity toward NIH3T3 fibroblasts, dose response, counter-screen, cell-based, ATP luminescence, mouse fibroblasts (AID 2010); format: functional;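 note: cells exposed to compound for about 90 hours before reading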
[8] = THP-1 cell cytotoxicity, dose response, cytotoxicity control for non-replicating M. tuberculosis project (AID 489025); format: functional
cells = format: functional
[9] = molecular target: T4, DNA repair protein RAD52 homolog (Homo sapiens, UniProt P43351); format: functional, biochemical
T4 sequence (P43351 whole entry): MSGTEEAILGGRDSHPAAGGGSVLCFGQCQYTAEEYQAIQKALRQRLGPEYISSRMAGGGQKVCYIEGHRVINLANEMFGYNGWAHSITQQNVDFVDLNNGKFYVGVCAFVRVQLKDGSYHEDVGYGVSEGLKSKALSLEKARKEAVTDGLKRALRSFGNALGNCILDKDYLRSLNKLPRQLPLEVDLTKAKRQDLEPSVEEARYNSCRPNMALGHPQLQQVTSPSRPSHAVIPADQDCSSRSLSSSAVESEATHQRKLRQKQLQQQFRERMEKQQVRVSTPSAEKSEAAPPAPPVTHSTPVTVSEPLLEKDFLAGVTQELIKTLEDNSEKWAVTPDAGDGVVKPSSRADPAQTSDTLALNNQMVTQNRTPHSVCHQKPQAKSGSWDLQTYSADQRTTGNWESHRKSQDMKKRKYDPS

[10] = inhibitors of intracellular T. cruzi replication, confirmation, NIH3T3 host cells, beta-gal luminescence (AID 2044); format: functional, cell-based;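 note: intracellular parasites grown in NIH/3T3 mouse fibroblasts as host cells; luminescent beta-galactosidase reporter signal from transgenic T. cruzi replicating inside host cells; inhibitors lower the luminescence signal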
[11] = HepG2 cell cytotoxicity, dose response, cytotoxicity control for Shn3 inhibitor project, CellTiter-Glo, cherry-picked (AID 624134); format: functional, cell-based
HEK293 [12] = test: cells; format: functional, cell-based; conditions: Homo sapiens
HEK293 [13] = test: NOD2 signaling inhibitors in MDP-stimulated cells, cell-based, uHTS, luminescence (AID 2001); format: functional; conditions: Homo sapiens
HEK293 [14] = test: NOD1 signaling inhibitors, primary screen, cell-based, luminescence, uHTS (AID 1578); format: functional; conditions: Homo sapiens
HEK293 [15] = test: cells; format: functional, cell-based; conditions: Homo sapiens; remark: listed apart in the source
[16] = Shn3 3'UTR reporter inhibitors, dose response, cell-based, Clone20 osteoblasts, firefly luciferase, cherry-picked (AID 624132); format: functional;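 note: firefly luciferase luminescence from reporter carrying the Shn3 3'UTR in osteoblasts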
[17] = control 3'UTR Renilla luciferase suppression, dose response, counter-screen for Shn3 inhibitor project, cell-based, Clone20-Shn3RL, cherry-picked (AID 624133); format: functional
Cysteine protease ATG4B = molecular target: T5, Cysteine protease ATG4B (Homo sapiens, UniProt Q9Y4P1); format: functional;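 note: Fluorescence-based dose-response confirmation assay measuring inhibition of ATG4B activity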
T5 sequence (Q9Y4P1 whole entry): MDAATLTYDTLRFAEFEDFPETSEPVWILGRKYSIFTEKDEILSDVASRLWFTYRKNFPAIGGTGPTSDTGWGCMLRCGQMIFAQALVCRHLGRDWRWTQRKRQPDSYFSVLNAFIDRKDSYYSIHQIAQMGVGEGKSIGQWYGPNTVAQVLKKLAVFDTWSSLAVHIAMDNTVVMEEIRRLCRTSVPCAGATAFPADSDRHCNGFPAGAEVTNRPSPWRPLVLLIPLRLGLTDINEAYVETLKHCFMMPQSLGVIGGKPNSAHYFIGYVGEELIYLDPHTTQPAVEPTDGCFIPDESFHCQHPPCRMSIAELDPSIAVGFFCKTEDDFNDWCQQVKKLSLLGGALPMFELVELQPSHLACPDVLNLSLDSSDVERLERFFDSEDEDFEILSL

Phospholipase A2 = Phospholipase A2 (Homo sapiens, UniProt P04054); format: functional;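 note: confirmatory dose-response counterscreen on phospholipase A2, testing hits that came from an ultra-high-throughput screen for ATG4B inhibitors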
[18] = test system: Streptococcus sp. 'group A'; test: growth inhibition of control SK(-) GAS strain, dose response, counter-screen for streptokinase expression inhibitor project, luminescence, kanamycin, BacTiterGlo, confirmation (AID 1900); format: functional, organism-based
Streptococcus = test: Group A Streptococcus viability loss, dose response, counter-screen for streptokinase expression inhibitor project, luminescence, BacTiterGlo (AID 1915); format: functional, organism-based;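 note: potency for reduction of bacterial viability or growth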
Streptokinase A = molecular target: T6, Streptokinase A (Streptococcus pyogenes serotype M1, UniProt P10520); test: S. pyogenes streptokinase expression inhibitors, potency, dose response, plasminogen activation absorbance, OD405 (AID 1914); format: functional, Streptococcus pyogenes M1 GAS;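 note: secreted streptokinase activity via plasminogen activation per viability signal from cell pellet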
T6 sequence (P10520 whole entry): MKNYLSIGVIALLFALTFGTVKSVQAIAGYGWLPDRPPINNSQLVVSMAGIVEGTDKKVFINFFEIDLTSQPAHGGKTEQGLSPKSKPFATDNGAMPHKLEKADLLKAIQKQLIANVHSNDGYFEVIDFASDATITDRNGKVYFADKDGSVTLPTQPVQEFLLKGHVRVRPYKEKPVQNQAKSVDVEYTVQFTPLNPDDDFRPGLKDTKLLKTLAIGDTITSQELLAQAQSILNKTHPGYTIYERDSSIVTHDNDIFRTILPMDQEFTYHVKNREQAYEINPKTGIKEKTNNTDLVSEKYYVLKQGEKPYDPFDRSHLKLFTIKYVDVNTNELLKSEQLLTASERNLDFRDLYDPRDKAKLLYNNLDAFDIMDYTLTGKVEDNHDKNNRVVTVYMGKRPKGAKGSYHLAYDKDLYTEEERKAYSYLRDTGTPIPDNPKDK

[19] = Luminescence Cell-Based Dose Retest to Confirm Inhibitors of Cancer Stem Cells. [Related pubchem assays (depositor defined):AID2717, AID2721]; format: functional; conditions: Homo sapiens
[20] = A Cell Based Secondary Assay To Explore Cytotoxicity of Compounds that Sensitize Mycobacterium Tuberculosis to Beta-Lactam Antibiotics.; format: functional

Cytochrome P450 2D6, sequence (P10635 whole entry): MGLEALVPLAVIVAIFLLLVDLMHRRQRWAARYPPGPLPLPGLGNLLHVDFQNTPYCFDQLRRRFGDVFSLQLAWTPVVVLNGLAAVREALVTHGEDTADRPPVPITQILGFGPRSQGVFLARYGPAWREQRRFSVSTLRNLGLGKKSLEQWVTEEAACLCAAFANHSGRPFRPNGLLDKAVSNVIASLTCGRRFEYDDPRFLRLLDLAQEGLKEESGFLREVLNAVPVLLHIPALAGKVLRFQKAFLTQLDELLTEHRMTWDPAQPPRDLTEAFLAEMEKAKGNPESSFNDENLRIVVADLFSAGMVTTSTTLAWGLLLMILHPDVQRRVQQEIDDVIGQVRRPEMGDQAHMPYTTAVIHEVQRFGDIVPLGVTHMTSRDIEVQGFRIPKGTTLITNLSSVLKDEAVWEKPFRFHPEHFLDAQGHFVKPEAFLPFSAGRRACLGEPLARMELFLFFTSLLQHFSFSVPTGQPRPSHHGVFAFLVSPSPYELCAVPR
Cytochrome P450 2C9, sequence (P11712 whole entry, the tested form may be a part): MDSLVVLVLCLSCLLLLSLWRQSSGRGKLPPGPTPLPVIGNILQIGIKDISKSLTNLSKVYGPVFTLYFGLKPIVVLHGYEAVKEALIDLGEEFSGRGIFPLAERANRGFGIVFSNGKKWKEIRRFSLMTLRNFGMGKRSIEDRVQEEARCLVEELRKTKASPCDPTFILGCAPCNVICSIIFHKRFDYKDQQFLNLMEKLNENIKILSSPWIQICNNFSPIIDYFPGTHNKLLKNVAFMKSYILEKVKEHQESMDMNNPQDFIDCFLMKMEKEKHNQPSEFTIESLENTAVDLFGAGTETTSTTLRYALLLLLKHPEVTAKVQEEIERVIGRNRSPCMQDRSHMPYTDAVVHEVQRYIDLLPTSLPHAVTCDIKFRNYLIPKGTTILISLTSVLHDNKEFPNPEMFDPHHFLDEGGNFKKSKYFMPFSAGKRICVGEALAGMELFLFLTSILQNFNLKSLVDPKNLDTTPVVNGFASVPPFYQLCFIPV
Phospholipase A2, sequence (P04054 whole entry): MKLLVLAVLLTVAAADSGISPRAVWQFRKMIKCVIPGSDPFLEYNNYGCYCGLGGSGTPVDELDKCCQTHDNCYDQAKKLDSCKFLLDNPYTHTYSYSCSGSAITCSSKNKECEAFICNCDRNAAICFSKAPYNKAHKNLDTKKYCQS
T2 sequence (P49327 whole entry, the tested form may be a part): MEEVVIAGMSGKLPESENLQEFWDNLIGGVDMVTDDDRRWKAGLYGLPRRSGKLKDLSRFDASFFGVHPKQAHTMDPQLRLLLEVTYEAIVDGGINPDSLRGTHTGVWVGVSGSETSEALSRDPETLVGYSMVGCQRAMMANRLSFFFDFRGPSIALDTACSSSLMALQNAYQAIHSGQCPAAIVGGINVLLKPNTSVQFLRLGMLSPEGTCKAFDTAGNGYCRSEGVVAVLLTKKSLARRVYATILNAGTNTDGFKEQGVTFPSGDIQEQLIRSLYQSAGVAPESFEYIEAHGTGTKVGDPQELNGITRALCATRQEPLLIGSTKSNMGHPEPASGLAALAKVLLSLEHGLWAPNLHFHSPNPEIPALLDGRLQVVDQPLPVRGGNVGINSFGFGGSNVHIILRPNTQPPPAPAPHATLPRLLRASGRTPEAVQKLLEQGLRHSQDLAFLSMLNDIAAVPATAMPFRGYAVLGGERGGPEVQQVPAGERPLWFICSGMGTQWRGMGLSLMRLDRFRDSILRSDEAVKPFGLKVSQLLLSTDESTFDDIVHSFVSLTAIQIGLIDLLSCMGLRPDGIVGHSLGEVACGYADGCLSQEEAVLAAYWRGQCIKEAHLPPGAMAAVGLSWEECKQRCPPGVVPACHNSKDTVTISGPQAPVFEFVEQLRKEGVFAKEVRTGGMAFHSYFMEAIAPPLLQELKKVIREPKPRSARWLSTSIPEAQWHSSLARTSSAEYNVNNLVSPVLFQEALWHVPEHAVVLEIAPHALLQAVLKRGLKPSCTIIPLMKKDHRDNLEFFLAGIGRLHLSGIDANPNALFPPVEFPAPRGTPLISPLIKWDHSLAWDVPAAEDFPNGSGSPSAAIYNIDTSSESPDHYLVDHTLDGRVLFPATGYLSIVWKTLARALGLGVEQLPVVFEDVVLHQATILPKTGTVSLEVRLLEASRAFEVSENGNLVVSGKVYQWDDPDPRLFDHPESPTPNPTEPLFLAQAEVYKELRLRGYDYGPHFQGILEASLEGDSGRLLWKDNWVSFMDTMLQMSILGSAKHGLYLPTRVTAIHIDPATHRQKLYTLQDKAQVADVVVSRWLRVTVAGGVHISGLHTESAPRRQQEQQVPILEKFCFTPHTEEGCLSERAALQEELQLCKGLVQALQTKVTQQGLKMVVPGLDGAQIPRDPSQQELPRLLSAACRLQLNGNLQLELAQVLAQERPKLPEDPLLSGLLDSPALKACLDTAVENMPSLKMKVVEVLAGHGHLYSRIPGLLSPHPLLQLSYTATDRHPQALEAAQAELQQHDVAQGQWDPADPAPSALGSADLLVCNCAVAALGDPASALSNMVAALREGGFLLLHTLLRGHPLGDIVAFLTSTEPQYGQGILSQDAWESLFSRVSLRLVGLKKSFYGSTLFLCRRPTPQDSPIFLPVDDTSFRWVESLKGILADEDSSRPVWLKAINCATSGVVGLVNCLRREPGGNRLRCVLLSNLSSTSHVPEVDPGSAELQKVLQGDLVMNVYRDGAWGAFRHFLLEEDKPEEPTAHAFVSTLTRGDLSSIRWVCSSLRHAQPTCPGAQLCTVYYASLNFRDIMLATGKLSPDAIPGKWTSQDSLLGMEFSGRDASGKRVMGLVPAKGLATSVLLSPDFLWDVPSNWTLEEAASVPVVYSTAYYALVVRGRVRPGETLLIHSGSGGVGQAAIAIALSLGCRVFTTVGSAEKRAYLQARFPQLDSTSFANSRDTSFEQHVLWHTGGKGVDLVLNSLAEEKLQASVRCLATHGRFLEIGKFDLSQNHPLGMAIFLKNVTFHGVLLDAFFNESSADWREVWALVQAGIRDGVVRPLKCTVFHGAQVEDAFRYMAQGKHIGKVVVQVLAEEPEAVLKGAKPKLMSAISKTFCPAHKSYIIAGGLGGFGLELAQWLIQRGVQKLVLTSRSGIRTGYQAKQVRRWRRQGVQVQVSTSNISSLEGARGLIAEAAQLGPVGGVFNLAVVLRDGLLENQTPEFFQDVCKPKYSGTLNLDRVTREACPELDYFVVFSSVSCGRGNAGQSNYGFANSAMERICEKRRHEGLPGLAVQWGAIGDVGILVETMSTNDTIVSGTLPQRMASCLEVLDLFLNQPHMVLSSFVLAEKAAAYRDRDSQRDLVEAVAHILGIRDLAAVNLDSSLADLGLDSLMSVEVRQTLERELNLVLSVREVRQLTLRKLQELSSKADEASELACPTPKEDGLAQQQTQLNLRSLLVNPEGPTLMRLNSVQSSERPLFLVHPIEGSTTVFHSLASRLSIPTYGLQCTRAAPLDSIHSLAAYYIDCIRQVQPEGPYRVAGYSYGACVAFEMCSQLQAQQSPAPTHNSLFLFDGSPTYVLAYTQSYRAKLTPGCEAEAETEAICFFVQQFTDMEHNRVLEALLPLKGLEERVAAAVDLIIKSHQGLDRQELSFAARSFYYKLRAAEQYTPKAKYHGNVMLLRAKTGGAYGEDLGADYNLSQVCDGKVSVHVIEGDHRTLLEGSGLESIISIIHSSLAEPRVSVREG
Cytochrome P450 2C19, sequence (P33261 whole entry): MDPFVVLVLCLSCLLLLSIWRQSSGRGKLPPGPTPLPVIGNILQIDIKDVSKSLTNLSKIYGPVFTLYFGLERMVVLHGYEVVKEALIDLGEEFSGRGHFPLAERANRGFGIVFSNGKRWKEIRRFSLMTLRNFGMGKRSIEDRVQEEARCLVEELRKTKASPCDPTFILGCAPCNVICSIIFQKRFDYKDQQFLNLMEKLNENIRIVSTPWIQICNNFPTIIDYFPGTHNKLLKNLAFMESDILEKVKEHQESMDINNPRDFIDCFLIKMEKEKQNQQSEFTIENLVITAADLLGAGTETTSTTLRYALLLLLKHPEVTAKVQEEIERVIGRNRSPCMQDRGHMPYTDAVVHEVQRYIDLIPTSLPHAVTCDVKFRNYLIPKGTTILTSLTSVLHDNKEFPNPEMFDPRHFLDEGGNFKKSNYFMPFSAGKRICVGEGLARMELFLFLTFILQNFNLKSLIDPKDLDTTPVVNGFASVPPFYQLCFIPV
G-protein coupled receptor 55, sequence (Q9Y2T6 whole entry): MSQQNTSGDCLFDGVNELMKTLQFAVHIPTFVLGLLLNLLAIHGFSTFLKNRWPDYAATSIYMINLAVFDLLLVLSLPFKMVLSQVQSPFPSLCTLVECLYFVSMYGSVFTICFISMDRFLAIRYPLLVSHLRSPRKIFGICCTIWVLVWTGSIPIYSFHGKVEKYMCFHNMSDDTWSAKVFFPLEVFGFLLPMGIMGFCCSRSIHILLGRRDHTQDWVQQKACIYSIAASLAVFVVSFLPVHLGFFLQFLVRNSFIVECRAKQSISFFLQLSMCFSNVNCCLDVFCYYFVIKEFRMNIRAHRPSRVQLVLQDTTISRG

CN1C(=O)CC(c2ccco2)Sc2ccccc21 (stereo not drawn)
IC50 [1]: > 80 µM (inactive)

c1ccc(CCNc2ncnc3ccccc23)cc1
AC50 (INS1): 1.05 µM (active) | IC50 [1]: > 80 µM (inactive)

COc1ccc(C(C(=O)NC2CCCCC2)N(C(=O)c2sc(C)nc2C)c2ccc(C(C)=O)cc2)cc1 (stereo not drawn)
AC50 (Cytochrome P450 2D6): inconclusive

CCOC(=O)c1cnc2c(C(F)(F)F)cccc2c1N1CCOCC1
IC50 [2]: 13.5 µM (active)

COc1ccccc1N1CCN(C(c2cccs2)c2nnnn2C2CCCC2)CC1 (stereo not drawn)
EC50 [3]: 6.33 µM (active)

COc1cc(C(=O)NC(=S)Nc2ccc3oc(=O)ccc3c2)cc(OC)c1OC
AC50 (Cytochrome P450 2D6): inconclusive

O=C(O)C1CCN(c2c([N+](=O)[O-])cc(C(F)(F)F)cc2[N+](=O)[O-])CC1
AC50 (Cytochrome P450 2D6): inconclusive | AC50 (Cytochrome P450 2C19): 14.1 µM (inconclusive) | AC50 (Cytochrome P450 2C9): 35.5 µM (inconclusive)

O=C(NCc1ccc2c(c1)OCO2)c1cc([N+](=O)[O-])ccc1N1CCOCC1
IC50 (Fatty acid synthase [4]): 8.35 µM (active) | IC50 (Fatty acid synthase [5]): 11.5 µM (active) | IC50 [6]: > 80 µM (inactive)

O=S(=O)(Nc1nc2cc3c(cc2nc1Cl)OCCO3)c1ccccc1
IC50 (Aminopeptidase N): 66.8 µM (active)

N=C(N)Nc1nc(-c2ccccc2)c2ccccc2n1
EC50 [7]: > 60 µM (not active) | CC50 [8]: 21.2 µM (active) | IC50 (cells): 34.5 µM (active) | AC50 [9]: 16.6 µM (active) | EC50 [10]: 0.142 µM (active)

Cn1c(SCC(=O)N2CCCc3ccccc32)nc2ccccc2c1=O
AC50 [11]: 43.6 µM (active) | IC50 (HEK293 [12]): 13.5 µM (active) | IC50 (HEK293 [13]): 6.57 µM (active) | EC50 (HEK293 [14]): 4.77 µM (active) | IC50 (HEK293 [15]): 5.85 µM (active) | AC50 [16]: 3.46 µM (active) | AC50 [17]: 4.04 µM (active)

CC1CCN(C(=O)CCCOc2cc(=O)n(C)c3ccccc23)CC1
IC50 [1]: > 80 µM (inactive)

O=S(=O)(c1ccc(F)cc1)c1nc(-c2ccccc2F)oc1N1CCCCC1
IC50 (Cysteine protease ATG4B): 19.1 µM (active) | EC50 [7]: > 30 µM (not active) | IC50 (Phospholipase A2): 12.3 µM (active) | EC50 [10]: 1.87 µM (active)

CC(C)c1ccc(NC2CCCN(C(=O)c3cnn(C(C)C)c3)C2)cc1 (stereo not drawn)
IC50 (Cysteine protease ATG4B): 9.04 µM (active) | IC50 (Phospholipase A2): 6.21 µM (active)

COCCn1c(C)cc2c(c1=O)C(c1ccccc1F)C(C#N)=C(N)O2 (stereo not drawn)
AC50 (Cytochrome P450 2D6): inconclusive | AC50 (Cytochrome P450 2C9): 17.8 µM (inconclusive)

CC12CCC(C/C1=N\NC1=NC(=O)/C(=C\c3cccc(Br)c3)S1)C2(C)C (stereo not drawn)
EC50 [18]: 0.343 µM (active) | EC50 (Streptococcus): 2.89 µM (active) | EC50 (Streptokinase A): > 150 µM (not active) | AC50 [19]: 1.95 µM (active) | CC50 [20]: > 40 µM (active)

CCN1C(=O)[C@H]2[C@@H]3[C@H](O)C=CC(=O)[C@H]3CC[C@H]2C1=O
AC50 (Cytochrome P450 2D6): inconclusive

Cc1ccccc1N(CC(=O)NC1CCCC1)C(=O)C[S+]([O-])CC(=O)Nc1ccc2c(c1)OCO2 (stereo not drawn)
IC50 (Aminopeptidase N): 63.9 µM (active)

O=C(NNS(=O)(=O)c1ccc(Cl)cc1)c1cc(-c2ccccc2)nc2ccccc12
IC50 (Aminopeptidase N): 36.5 µM (active)
